Data reported in patent publication US5059588A, “Methods and compositions for healing bone using Gly His Lys: Copper” (ProCyte Corporation, Incorporated, priority 1989, dated 1991).
Several values for one entry are separate records, joined by “and”; a condition that tells them apart may be missing. Identical values can stand only once.

Experiments:
[1] = system: drill holes in bone (femur) of male rats; assay: Healing of drill-hole defects in the femur of rats; type: in vivo, rat; settings: for bone healing activity: general statement
Description: In one representative study, male rats weighing approximately 350-400 grams received drill holes in bone which were then treated with pharmaceutical preparations containing GHL-Cu.
More specifically, on the day of surgery (Day 0), animals were sedated with pentobarbital (I.P., 35 mg/kg). The hair was clipped from the left rear upper limb, and the area was prepped in a sterile fashion. Using a #15 blade, a 2 cm incision was made on the lateral surface of the upper limb following the approximate location of the femur, extending from just below the crest of the ilium. The tensor fasciae latae muscle was exposed and incised parallel to the muscle filers (1 cm incision). Careful retraction of the muscle provided exposure of the vastus lateralis muscle overlying the femur. The approach to the femur was completed upon incision and retraction of this muscle. This provided exposure of 1 cm of the lateral and ventral surfaces of bone. Using a periosteal elevator, the surface of the femur was cleaned of periosteum. At this point, very little bleeding had been encountered. Using a Dremel drill fitted with a 1 mm diameter cutting burr, a hole was drilled in the femur to a depth of approximately 0.75 mm. Little bleeding was evident except in the rare case of marrow penetration. The area was irrigated and hemostasis achieved. At this point, a pharmaceutical preparation of the compositions of the present invention was applied to the exposed bone surface. The muscle was closed in layers using chromic suture, and the skin was closed with stainless steel wound clips. Structure and function of the muscles was intact following surgery, and very little, if any, morbidity was associated with the surgical procedure.
After 7 to 14 days, the animals were terminated and their femurs removed. Evidence of bone growth was determined from gross visualization of the defect using a Wild dissecting scope, and from subsequent histological preparations (decalcification, paraffin embedding, and Trichrome staining).
Results at 12 to 14 days following surgery utilizing pharmaceutical preparation B to accelerate the bone healing process are summarized in Table 2. Controls consisted of bones without treatment.
In a second study, defects were created in bones and pharmaceutical preparation E applied to the exposed bone in the same manner as described in Example 9.

[2] = system: bone models implanted in rats; assay: Granulation tissue formation in stainless steel chambers (bone healing model) implanted subcutaneously in rats; type: in vivo, rat; settings: for PROTEIN: relative to BSA
From the text: The subcutaneous implantation of stainless steel chambers in rats provides a reproducible models to monitor the healing of bone. This model in many ways mimics the early events in the formation of granulation tissue found in fractures or other types of injury to bone. Implantation of these chambers triggers a series of responses which reflect the series of phases involved in bone healing--fibrin clot formation, infiltration of white cells, collagen synthesis, and new blood vessel formation.
The assay involves the implantation of two stainless steel chambers (1×2.5 cm cylindrical 312 SS, 20 mesh, with Teflon end caps) on each side of the dorsal midline of rats. After one week to allow for encapsulation of the chambers, one chamber on each rat was injected with 0.2 ml of a 10 mg/ml solution of GHL-Cu and the other with the same volume of saline. Injections are made on days […], 7, 8, 12, 13, 15 and 19. The chambers were removed on day 15 and day 29.
The chambers were lyophilized and the interior contents removed for biochemical analysis. The biochemical parameters examined include the total dry weight, protein content, angiogenesis (alkaline phosphatase activity), and collagen content (hydroxyproline content after acid hydrolysis). Significant increases were found in all the biochemical parameters tested when compounds of the present invention were used as compared to controls.
Protein content was determined by the method of Lowry (Lowry et al., J. Biol. Chem. 193:265-275, 1951) using Bovine Serum Albumin (BSA) as a standard. Angiogenesis was determined by measuring the amount of alkaline phosphatase activity using p-nitrophenyl phosphate as a substrate (Lyles et al., C. Biochem. Pharm. 33:2569-2574, 1984). The collagen content was determined by acid hydrolysis and a colorimetric assay for hydroxyproline (Bergman et al., R. Clin. Chim. Acta 27:347-349, 1970), an amino acid specific for collagen.
The total protein is expressed as mg protein (relative to BSA) per chamber, the angiogenesis as alkaline phosphatase (AP) units per chamber, where one unit=the amount of homogenate which causes an increase in absorbance at 405 nm of 1.0 per min., and the hydroxyproline (HP, Collagen Content) as μg HP per chamber. Comparison with control data is made by determining the ratio, treated/control (T/C) for each parameter.

With “L-lysyl-L-histidyl-glycine:copper(II) [LHG-Cu]” the bone healing activity [1] was “have shown bone healing activity”.

With “glycyl-L-histidyl-L-lysine:copper(II) [GHL-Cu]” the “histology, periosteal layer (FIG. 6)” value ([1]; X40, Trichrome stain, versus placebo) was “better developed and continuous”, the “histology, new bone (FIG. 7)” value ([1]; X 63, Trichrome stain, versus placebo) was “increase in density of new bone” and the “gross appearance of bone defect (FIG. 5)” value ([1]; day 7, versus placebo gel) was “influx of bony calcification and granulation tissue”. The bone healing activity [1] was “have shown bone healing activity”, the “ANGIOGENESIS (alkaline phosphatase)” value ([2]; day 15) was 6.5 ± 3.2 AP units/chamber and the “COLLAGEN (hydroxyproline)” value ([2]; day 15) was 243 ± 215 μg HP/chamber. For the same substance, the “DRY WEIGHT” value ([2]; day 15, chamber injected with 0.2 ml of 10 mg/ml solution) was 92 ± 46 mg, the T/C dry weight ([2]; day 15, ratio treated/control) was ~ 2 and 2.2 and the T/C protein ([2]; day 15, ratio treated/control) was ~ 2 and 2.0. For the same substance, the PROTEIN ([2]; day 15) was 69 ± 32 mg/chamber, the “ANGIOGENESIS (alkaline phosphatase)” value ([2]; day 29) was 20.3 ± 10.0 AP units/chamber and the “COLLAGEN (hydroxyproline)” value ([2]; day 29) was 1849 ± 546 μg HP/chamber. The “DRY WEIGHT” value ([2]; day 29) was 165 ± 38 mg, the T/C angiogenesis ([2]; day 29, ratio treated/control) was 3.2 and the T/C collagen ([2]; day 29, ratio treated/control) was 1.9. For the same substance, the T/C dry weight ([2]; day 29, ratio treated/control) was 1.7, the T/C protein ([2]; day 29, ratio treated/control) was 1.4 and the PROTEIN ([2]; day 29) was 77 ± 19 mg/chamber.
